# From PMC7738283, “Discovery of orally active chalcones as histone lysine specific demethylase 1 inhibitors for the treatment of leukaemia” (Journal of Enzyme Inhibition and Medicinal Chemistry, 2020)
# “Also recorded” adds a separate entry of the source.
# Tests used:
# [1] = molecular target: T1, MAO-A (Homo sapiens, UniProt P21397); experiment: MAO-A inhibition assay (MAO-Glo kit); assay type: biochemical
# T1 construct: purchased Active Motif 31502
# T1 sequence (P21397 1-527): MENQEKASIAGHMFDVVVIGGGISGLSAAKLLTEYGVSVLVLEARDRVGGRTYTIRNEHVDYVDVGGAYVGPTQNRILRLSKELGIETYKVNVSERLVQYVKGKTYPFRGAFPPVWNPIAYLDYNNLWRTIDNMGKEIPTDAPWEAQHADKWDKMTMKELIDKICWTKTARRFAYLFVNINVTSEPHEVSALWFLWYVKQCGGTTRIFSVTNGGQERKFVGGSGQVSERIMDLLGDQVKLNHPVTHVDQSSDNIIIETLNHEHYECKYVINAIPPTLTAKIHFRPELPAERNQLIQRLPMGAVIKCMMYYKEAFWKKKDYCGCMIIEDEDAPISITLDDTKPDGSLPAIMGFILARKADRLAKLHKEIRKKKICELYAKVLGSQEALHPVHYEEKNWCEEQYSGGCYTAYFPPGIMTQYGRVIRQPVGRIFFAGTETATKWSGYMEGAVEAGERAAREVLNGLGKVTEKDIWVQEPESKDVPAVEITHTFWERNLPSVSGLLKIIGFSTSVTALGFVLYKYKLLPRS
# Description: (§1) The inhibition of LSD1 activity was evaluated according to reported references. pET-28b-LSD1 (full length) was transfected into BL21 (DE). Then, the protein was induced with 0.25 mmol/L IPTG following sonication and purified with Ni-NTA (Qiagen, Tubingen, Germany), Resource Q (GE, Pittsburgh, PA, USA) and Sephacryl S-200 HR (GE, Pittsburgh, PA, USA). The fluorescence intensity was read using EnVision Plate Reader (PerkinElmer, Waltham, MA, USA) to calculate the inhibition rate. The MAO-A and MAO-B were purchased from Active Motif (Cat#31502, Cat#31503, Carlsbad, CA, USA). Biochemical Kits were purchased from Promega (MAO-Glo Assay, Madison, WI, USA). The inhibitory activities of MAO-A and MAO-B were obtained according to the reported reference. The inhibitory activities of CDK1 and CDK2 were obtained according to the reported reference.
# [2] = test system: Caco-2 (colon cancer cells); experiment: MTT cell viability assay, Caco-2; assay type: cell-based; conditions: 4, 8, 16 μM; 48 h and 72 h
# Description: (§2) Cancer cell lines (Hela, 22RV1, Caco-2, BEL-7402, MOLT-4, OVCAR-3, HCT-8, HIC, IMR-32, HAL-01, KE-37, P30-OHK, SUP-B15 and LC4-1) were maintained in RPMI 1640 medium (Hyclone, Los Angeles, CA, USA) with 10% foetal bovine serum (Hyclone, Los Angeles, USA) and 1% penicillin-streptomycin (Hyclone, Los Angeles, USA) in a humidified atmosphere of 5% CO2 and 95% air at 37 °C. All cell lines were purchased from the China Centre for Type Culture Collection (CCTCC, China). Control containing sequence specific for LSD1 ([…]) was described. The shRNA constructs were transfected into MOLT-4 cells using the Lonza Group nucleofector technology in accordance with the manufacturer’s instructions. MOLT-4&shLSD1 cells and MOLT-4&shControl cells were also established and cultured according to the published references. After the incubation for 24 h, cancer cell lines were cultured with the chalcone D6 at different concentrations. Then, 20 μL of MTT (3–(4,5-dimethylthiazol-2-yl)-2,5-diphenyltetrazolium bromide) solution (5 mg/ml) was added and the cells were incubated for 4 h. The absorbance was measured using a microplate reader (DeTie Technology Co., Ltd, NanJing, China).
# [3] = test system: H3K9me1 and H3K9me2 in MOLT-4 cells; experiment: Western blotting of LSD1 substrates H3K9me1/2 in MOLT-4 cells; assay type: cell-based, human; conditions: western blot
# Description: Western blot was performed with the total lysates using RIPA buffer (Hyclone, Los Angeles, CA, USA). Same amounts of protein were subjected to SDS-PAGE, and then transferred to nitrocellulose membranes (PALL, Cortland, NY, USA). After blocking with 5% milk solution, the membranes were incubated at 4 °C with respective antibody overnight, followed by the incubation with a secondary antibody. Finally, the blot was visualised by enhanced chemiluminescence kit (Thermo Fisher, Waltham, MA, USA).
# [4] = test system: 22RV1 (prostate cancer cells); experiment: MTT cell viability assay, 22RV1; assay type: cell-based; conditions: 4, 8, 16 μM; 48 h and 72 h
# Description: as §2
# [5] = test system: MOLT-4 cells; experiment: MTT cell viability assay, MOLT-4; assay type: cell-based, human
# Description: All cell lines were purchased from the China Centre for Type Culture Collection (CCTCC, China). […] Then, 20 μL of MTT (3–(4,5-dimethylthiazol-2-yl)-2,5-diphenyltetrazolium bromide) solution (5 mg/ml) was added and the cells were incubated for 4 h. The absorbance was measured using a microplate reader (DeTie Technology Co., Ltd, NanJing, China).
# [6] = test system: MOLT-4 xenograft; experiment: MOLT-4 xenograft study; assay type: in vivo; conditions: 60 mg/kg and 100 mg/kg, intragastric, 21 days
# Description: Animals were treated according to the protocols established by the ethics committee of Shengjing Hospital of China Medical University and the in vivo experiments were carried out in accordance with the approved guidelines and approved by the ethics committee of Shengjing Hospital of China Medical University. BALB/c nude mice were purchased from Hunan Slack Scene of Laboratory Animal Co., Ltd. (Hunan, China). Xenograft models using human leukaemia cells, MOLT-4, were established in BALB/c mice. Then, mice were separated into vehicle group and treatment groups (60 mg/kg and 100 mg/kg). The treatment groups received compound D6 by intragastric administration for a period of 21 days.
# [7] = molecular target: T2, MAO-B (Homo sapiens, UniProt P27338); experiment: MAO-B inhibition assay (MAO-Glo kit); assay type: biochemical
# T2 construct: purchased Active Motif 31503
# T2 sequence (P27338 1-520): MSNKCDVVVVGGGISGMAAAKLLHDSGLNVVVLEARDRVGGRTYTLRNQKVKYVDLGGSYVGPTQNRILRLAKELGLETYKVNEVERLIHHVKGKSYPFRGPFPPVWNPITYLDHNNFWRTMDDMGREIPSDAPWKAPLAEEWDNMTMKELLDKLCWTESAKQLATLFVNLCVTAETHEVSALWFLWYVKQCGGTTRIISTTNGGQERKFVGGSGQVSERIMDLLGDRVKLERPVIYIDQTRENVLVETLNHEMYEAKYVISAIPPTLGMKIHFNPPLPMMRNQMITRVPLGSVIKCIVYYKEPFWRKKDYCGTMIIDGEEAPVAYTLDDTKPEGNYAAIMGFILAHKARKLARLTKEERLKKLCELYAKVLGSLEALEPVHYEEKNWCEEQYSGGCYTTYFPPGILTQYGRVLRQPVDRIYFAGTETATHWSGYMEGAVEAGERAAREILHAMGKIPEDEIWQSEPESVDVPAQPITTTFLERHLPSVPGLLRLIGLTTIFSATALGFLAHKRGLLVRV
# Description: as §1
# [8] = molecular target: CDK1 (Homo sapiens, UniProt P06493); experiment: CDK1 enzyme assay; assay type: biochemical; conditions: 400 nM; read-out: inhibition rate CDK1
# Chain of CDK1 (P06493 whole entry, species assumed): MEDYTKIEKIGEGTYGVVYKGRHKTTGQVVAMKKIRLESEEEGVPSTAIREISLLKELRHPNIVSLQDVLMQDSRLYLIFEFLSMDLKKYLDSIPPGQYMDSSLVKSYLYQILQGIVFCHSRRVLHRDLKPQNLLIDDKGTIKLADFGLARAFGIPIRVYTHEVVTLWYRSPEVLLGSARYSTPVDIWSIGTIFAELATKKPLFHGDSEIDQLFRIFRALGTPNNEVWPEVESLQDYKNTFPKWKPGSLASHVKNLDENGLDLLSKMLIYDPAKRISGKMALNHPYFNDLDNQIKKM
# Chain of CDK1 (P14635 whole entry partner, species assumed): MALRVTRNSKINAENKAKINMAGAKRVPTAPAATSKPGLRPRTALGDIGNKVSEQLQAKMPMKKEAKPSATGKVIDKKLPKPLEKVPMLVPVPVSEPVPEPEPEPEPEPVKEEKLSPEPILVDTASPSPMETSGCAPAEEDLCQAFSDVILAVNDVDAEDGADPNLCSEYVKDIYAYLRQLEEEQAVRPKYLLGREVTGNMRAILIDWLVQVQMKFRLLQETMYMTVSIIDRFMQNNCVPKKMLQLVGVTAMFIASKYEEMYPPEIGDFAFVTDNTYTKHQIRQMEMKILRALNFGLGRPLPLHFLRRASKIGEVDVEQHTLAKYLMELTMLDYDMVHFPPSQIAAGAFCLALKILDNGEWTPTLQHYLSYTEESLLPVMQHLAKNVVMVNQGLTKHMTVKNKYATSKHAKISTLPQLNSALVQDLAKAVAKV
# Description: (§3) The inhibition of LSD1 activity was evaluated according to reported references [23, 24]. pET-28b-LSD1 (full length) was transfected into BL21 (DE). Then, the protein was induced with 0.25 mmol/L IPTG following sonication and purified with Ni-NTA (Qiagen, Tubingen, Germany), Resource Q (GE, Pittsburgh, PA, USA) and Sephacryl S-200 HR (GE, Pittsburgh, PA, USA). The fluorescence intensity was read using EnVision Plate Reader (PerkinElmer, Waltham, MA, USA) to calculate the inhibition rate. […] The inhibitory activities of CDK1 and CDK2 were obtained according to the reported reference [26].
# [9] = molecular target: CDK2 (Homo sapiens, UniProt P24941); experiment: CDK2 enzyme assay; assay type: biochemical; conditions: 400 nM; read-out: inhibition rate CDK2
# Description: as §3
# [10] = test system: IMR-32 (neuroblastoma cells); experiment: MTT cell viability assay, IMR-32; assay type: cell-based; conditions: 4, 8, 16 μM; 48 h and 72 h
# Description: as §2
compound,measurement,setting,value
"CC(C)(C)OC(=O)N1CCN(C(=S)SCC(=O)Nc2ccc(C(=O)/C=C/c3ccccc3F)cc2)CC1 [D6, Tert-butyl-(E)-4-(((2-((4–(3-(2-fluorophenyl)acryloyl)phenyl)amino)-2-oxoethyl)thio)carbonothioyl)piperazine-1-carboxylate]",inhibition at 0.4 µM,"[1]; 400 nM, read-out: inhibition rate MAO-A",16.3%
same,IC50,[1]; in vitro,> 20 µM
same,antiproliferative effects (cell viability) Caco-2,[2],potential antiproliferative effects
same,amount of H3K9me1 and H3K9me2,[3],induce the accumulation of H3K9me1/2; also recorded: concentration dependent accumulation; also recorded: up-regulated the expression levels of H3K9me1 and H3K9me2
same,expression level of LSD1,[3],did not affect
same,antiproliferative effects (cell viability) 22RV1,[4],potential antiproliferative effects
same,antiproliferative effects (cell viability) MOLT-4,"[5]; 4, 8, 16 μM, 48 h and 72 h",potential antiproliferative effects
same,antiproliferation efficiency,"[5]; MOLT-4 cells, 48 h, 4 μM",around 80%
same,body weight of mice,[6],almost unchanged
same,global toxicity in xenograft model,[6],low global toxicity; also recorded: without apparent toxicity
same,"tumour growth (tumour volume, tumour weight)",[6],significantly suppressed MOLT-4 xenograft tumour growth; also recorded: inhibited tumour growth remarkably; also recorded: inhibited in vivo tumour growth
same,inhibition at 0.4 µM,"[7]; 400 nM, read-out: inhibition rate MAO-B",17.7%
same,IC50,"[7]; in vitro, MAO-AB [sic]",> 20 µM
same,inhibition at 0.4 µM,[8],16.3%
same,inhibition at 0.4 µM,[9],19%
same,antiproliferative effects (cell viability) IMR-32,[10],potential antiproliferative effects
